# Reference: US20230159445A1, “STAT INHIBITORY COMPOUNDS AND COMPOSITIONS” (JANPIX LIMITED, priority 2020, published 2023)
# System: MV4-11 cells
# Assay: MV4-11 Cell Cytotoxicity Assay (CellTiter-Blue, 72 h)
# Type: cell-based, human
# Details: Homo sapiens, MV4-11; MV-4-11 cells
# Protocol: In some embodiments, the potency of the STAT5 inhibitors are evaluated by an in vitro assay such as MV4-11 Cell Cytotoxicity Assay. […] 10,000 cells were plated per well in 96-well flat-bottom sterile culture plates with low-evaporation lids. After 24 h, inhibitors and a vehicle control (0.5% DMSO) were added and the cells were incubated for 72 h at 37° C. in 5% CO2. Inhibitors were examined in triplicate at a maximal concentration of 50 μM, followed by 1:2 dilutions in subsequent wells (25, 12.5, 6.25, 3.125, 1.5625, 0.78125, 0.390625, 0.195313 and 0.097656 μM). After 72 h, the wells were treated with CellTiter-Blue® (20 μL/well), and the plates were incubated using standard cell culture conditions for 1 hour. Fluorescence was measured at 560/590 nm.
row,Compound,IC50
1,"CN(C)CCOc1cc(C(=O)O)ccc1N(Cc1cc(C2CC2)cc(C(C)(C)C)c1)C(=O)CN(Cc1ccccc1F)S(=O)(=O)c1c(F)c(F)c(F)c(F)c1F [Compound 1101, 4-(N-(3-(tert-butyl)-5-cyclopropylbenzyl)-2-(N-(2-fluorobenzyl)-(2,3,4,5,6-pentafluoro-phenyl)sulfonamido)taceamido)-3-(2-(dimethylamino)ethoxy) benzoic acid]",3160 to 100000 nM
2,"CN(C)c1cc(C(=O)O)ccc1N(Cc1cc(C2CC2)cc(C(C)(C)C)c1)C(=O)CN(Cc1c(F)c(F)c(F)c(F)c1F)S(=O)(=O)c1c(F)c(F)c(F)c(F)c1F [Compound 1106, 4-(N-(3-(tert-butyl)-5-cyclopropylbenzyl)-2-(N-((perfluorophenyl)methyl)-(2,3,4,5,6-pentafluorophenyl)sulfonamido)acetamido)-3-(dimethylamino)benzoic acid]",0.01 to 316 nM
3,"CN(C)c1cc(C(=O)O)c(F)cc1N(Cc1cc(C2CC2)cc(C(C)(C)C)c1)C(=O)CN(Cc1c(F)c(F)c(F)c(F)c1F)S(=O)(=O)c1c(F)c(F)c(F)c(F)c1F [Compound 1107, 4-(N-(3-(tert-butyl)-5-cyclopropylbenzyl)-2-(N-((perfluorophenyl)methyl)-(2,3,4,5,6-pentafluoro-phenyl)sulfonamido)acetamido)-5-(dimethylamino)-2-fluorobenzoic acid]",0.01 to 316 nM
4,"CC(C)(C)c1cc(CN(C(=O)CN(Cc2ccccc2C(F)(F)F)S(=O)(=O)c2c(F)c(F)c(F)c(F)c2F)c2ccc(C(=O)O)cc2C2CC2)cc(C2CC2)c1 [Compound 1112, 4-(N-(3-(tert-butyl)-5-cyclopropylbenzyl)-2-(N-(2-(trifluoromethyl)benzyl)-(2,3,4,5,6-pentafluoro-phenyl)sulfonamido)acetamido)-3-cyclopropylbenzoic acid]",0.01 to 316 nM
5,"CN(C)c1cc(C(=O)O)c(F)cc1N(Cc1cc(C2CC2)cc(C(C)(C)C)c1)C(=O)CN(Cc1ccccc1C(F)(F)F)S(=O)(=O)c1c(F)c(F)c(F)c(F)c1F [Compound 1113, 4-(N-(3-(tert-butyl)-5-cyclopropylbenzyl)-2-(N-(2-(trifluoromethyl)benzyl)-(2,3,4,5,6-pentafluoro-phenyl)sulfonamido)acetamido)-5-(dimethylamino)-2-fluorobenzoic acid]",316 to 1000 nM
6,"COc1cc(C(N)=O)ccc1N(Cc1cc(C2CC2)cc(C(C)(C)C)c1)C(=O)CN(Cc1ccccc1F)S(=O)(=O)c1c(F)c(F)c(F)c(F)c1F [Compound 1114, 4-(N-(3-(tert-butyl)-5-cyclopropylbenzyl)-2-(N-(2-fluorobenzyl)-(2,3,4,5,6-pentafluoro-phenyl)sulfonamido)acetamido)-3-methoxybenzamide]",316 to 1000 nM
7,"CN(C)c1ccc(C(=O)O)cc1N(Cc1cc(C2CC2)cc(C(C)(C)C)c1)C(=O)CN(Cc1ccccc1F)S(=O)(=O)c1c(F)c(F)c(F)c(F)c1F [Compound 1120, 3-(N-(3-(tert-butyl)-5-cyclopropylbenzyl)-2-(N-(2-fluorobenzyl)-(2,3,4,5,6-pentafluoro-phenyl)sulfonamido)acetamido)-4-(dimethylamino) benzoic acid]",316 to 1000 nM
8,"CN(C)c1cc(C(=O)O)ccc1N(Cc1cc(C2CC2)cc(C(C)(C)C)c1)C(=O)CN(Cc1c(F)cc(F)cc1F)S(=O)(=O)c1c(F)c(F)c(F)c(F)c1F [Compound 1125, 4-(N-(3-(tert-butyl)-5 - cyclopropylbenzyl)-2-(N-(2,4,6-trifluorobenzyl)-(2,3,4,5,6-pentafluoro-phenyl)sulfonamido)acetamido)-3-(dimethylamino) benzoic acid]",316 to 1000 nM
9,"O=C(O)c1ccc(N(Cc2ccccn2)C(=O)CN(Cc2ccccc2C(F)(F)F)S(=O)(=O)c2c(F)c(F)c(F)c(F)c2F)c(OC2CC2)c1 [Compound 1127, 3-cyclopropoxy-4-(2-(N-(2-(trifluoromethyl)benzyl)-(2,3,4,5,6-pentafluoro-phenyl)sulfonamido)-N-(pyridin-2-ylmethyl)acetamido) benzoic acid]",1000 to 3160 nM
10,"COc1cc(C(=O)O)ccc1N(Cc1cc(C2CC2)cc(C(C)(C)C)c1)C(=O)CN(Cc1cncc(C(F)(F)F)c1)S(=O)(=O)c1c(F)c(F)c(F)c(F)c1F [Compound 1131, 4-(N-(3-(tert-butyl)-5-cyclopropylbenzyl)-2-(N-((5-(trifluoromethyl)pyridin-3-yl)methyl)-(2,3,4,5,6-pentafluoro-phenyl)sulfonamido)acetamido)-3-methoxybenzoic acid]",316 to 1000 nM
11,"CC(C)(C)c1cc(CN(C(=O)CN(Cc2cccc(C(F)(F)F)c2)S(=O)(=O)c2c(F)c(F)c(F)c(F)c2F)c2ccc(C(=O)O)cc2OC2CC2)cc(C2CC2)c1 [Compound 1135, 4-(N-(3-(tert-butyl)-5-cyclopropylbenzyl)-2-(N-(3-(trifluoromethyl)benzyl)-(2,3,4,5,6-pentafluoro-phenyl)sulfonamido)acetamido)-3-cyclopropoxybenzoic acid]",316 to 1000 nM
12,"O=C(O)c1ccc(N(Cc2cccnn2)C(=O)CN(Cc2ccccc2C(F)(F)F)S(=O)(=O)c2c(F)c(F)c(F)c(F)c2F)c(OC2CC2)c1 [Compound 1138, 3-cyclopropoxy-4-(2-(N-(2-(trifluoromethyl)benzyl)-(2,3,4,5,6-pentafluoro-phenyl)sulfonamido)-N-(pyridazin-3-ylmethyl)acetamido) benzoic acid]",3160 to 100000 nM
13,"CC(C)(C)c1cc(CN(C(=O)CN(Cc2cccc(C#N)c2)S(=O)(=O)c2c(F)c(F)c(F)c(F)c2F)c2ccc(C(=O)O)cc2OC2CC2)cc(C2CC2)c1 [Compound 1139, 4-(N-(3-(tert-butyl)-5-cyclopropylbenzyl)-2-(N-(3-cyanobenzyl)-(2,3,4,5,6-pentafluorophenyl)sulfon-amido)acetamido)-3-cyclopropoxybenzoic acid]",316 to 1000 nM
14,"CC(C)(C)c1cc(CN(C(=O)CN(Cc2ccc(C#N)cc2)S(=O)(=O)c2c(F)c(F)c(F)c(F)c2F)c2ccc(C(=O)O)cc2OC2CC2)cc(C2CC2)c1 [Compound 1140, 4-(N-(3-(tert-butyl)-5-cyclopropylbenzyl)-2-(N-(4-cyanobenzyl)-(2,3,4,5,6-pentafluorophenyl)sulfon-amido)acetamido)-3-cyclopropoxybenzoic acid]",316 to 1000 nM
15,"COc1cc(C(=O)O)ccc1N(Cc1cccc(C(C)(C)C)c1)C(=O)CN(C12CC(C1)C2)S(=O)(=O)c1c(F)c(F)c(F)c(F)c1F [Compound 1144, 4-(2-(N-(bicyclo[1.1.1]pentan-1-yl)-(2,3,4,5,6-pentafluorophenyl)sulfon-amido)-N-(3-(tert-butyl)benzyl)acetamido)-3-methoxybenzoic acid]",316 to 1000 nM
16,"CC(C)(C)c1cc(CN(C(=O)CN(Cc2ccccc2F)S(=O)(=O)c2c(F)c(F)c(F)c(F)c2F)c2ccc(C#N)c(F)c2)cc(C2CC2)c1 [Compound 1151, N-(3-(tert-butyl)-5-cyclopropylbenzyl)-N-(4-cyano-3-fluorophenyl)-2-(N-(2-fluorobenzyl)-(2,3,4,5,6-pentafluoro-phenyl)sulfonamido) acetamide]",3160 to 100000 nM
17,"COc1cc(C(=O)O)ccc1N(Cc1nc2ccccc2n1C)C(=O)CN(Cc1cnccc1C(F)(F)F)S(=O)(=O)c1c(F)c(F)c(F)c(F)c1F [Compound 1158, 3-methoxy-4-(N-((1-methyl-1H-benzo[d]imidazol-2-yl)methyl)-2-(N-((4-(trifluoromethyl)pyridin-3-yl)methyl)-(2,3,4,5,6-pentafluoro-phenyl)sulfonamido)acetamido)benzoic acid]",3160 to 100000 nM
